Data set [1] can be described thus: Tolerability / clinical observation of cynomolgus monkeys (Example 8). Particulars: cynomolgus monkeys, 40 mg/kg s.c. The class given is in vivo, cynomolgus monkey. The method, then: Cynomolgus monkeys were treated with ISIS antisense oligonucleotides selected from studies described above. Antisense oligonucleotide efficacy and tolerability were evaluated. The human antisense oligonucleotides tested are cross-reactive with the rhesus genomic sequence (GENBANK Accession No. NW_001118167.1 truncated from nucleotides 2358000 to 2391000 and designated herein as SEQ ID NO: 18).
During the study period, the monkeys were observed a minimum of once daily for signs of illness or distress. Any animal experiencing more than momentary or slight pain or distress due to the treatment, injury or illness was promptly reported to the responsible veterinarian and the Study Director. Any animal in poor health or in a possible moribund condition was identified for further monitoring and possible euthanasia. […] The protocols described in the Example were approved by the Institutional Animal Care and Use Committee (IACUC).

For another data set, the system named is PKK protein. Nature of the data set: PKK protein in cynomolgus monkey plasma by ELISA (Example 8). Type of data set: in vivo. Particulars: 40 mg/kg sc. The method, then: Approximately 0.9 mL of blood was collected each time from all available animals at pre-dose, day 17, day 31, day 45, day 59, and day 73, and placed in tubes containing 3.2% sodium citrate. The tubes were centrifuged (3000 rpm for 10 min at room temperature) to obtain plasma. PKK protein levels were measured in the plasma by ELISA. The results are presented in Table 52, expressed as percentage inhibition compared to the PBS control levels.
(An ELISA detects its analyte on a solid surface through an enzyme-linked reagent.)

For data set [2] the following is noted: cynomolgus monkey, in vivo, sc, 40 mg/kg.
The conditions of data set [3]: cynomolgus monkey, in vivo, sc, 40 mg/kg. The source holds these as a separate data set.
Protocol: (§1) Prior to the study, the monkeys were kept in quarantine for a 30-day period, during which the animals were observed daily for general health. The monkeys were 2-4 years old and weighed between 2 and 4 kg. Ten groups of four randomly assigned male cynomolgus monkeys each were injected subcutaneously with ISIS oligonucleotide or PBS. PBS solution or ISIS oligonucleotides at a dose of 40 mg/kg were administered initially with a loading regimen consisting of four doses on the first week of the study (days 1, 3, 5, and 7), followed by a maintenance regimen consisting of once weekly administration starting on Day 14 (weeks 2 to 13). Subcutaneous injections were performed in clock-wise rotations at 4 sites on the back; one site per dose. The injection sites were delineated by tattoo, while sedated using ketamine, and were separated by a minimum of 3 cm.
To evaluate any effect of ISIS oligonucleotides in cynomolgus monkeys on hematologic parameters, blood samples of approximately 1.2 mL of blood was collected pre-dose and on day 87 or day 88 from each of the available study animals in tubes containing K2-EDTA. Samples were analyzed for red blood cell (RBC) count, white blood cells (WBC) count, platelet count, hemoglobin content and hematocrit, using an ADVIA2120i hematology analyzer (SIEMENS, USA).
The conditions of data set [4]: cynomolgus monkey, in vivo, sc, 40 mg/kg. This is another data set of the same source.
For data set [5] the following is noted: cynomolgus monkey, in vivo, sc, 40 mg/kg. This is another data set of the same source.
Protocol: as §1
Kidney function was also assessed by urinalysis. Fresh urine from all animals was collected using a clean cage pan on wet ice. Food was removed overnight the day before fresh urine collection was done but water was supplied. The total protein and creatinine levels were measured using a Toshiba 120FR NEO automated chemistry analyzer (Toshiba Co., Japan) and the protein to creatinine ratio was calculated.
For data set [6] the following is noted: cynomolgus monkey, in vivo, sc, 40 mg/kg. This is another data set of the same source.
Protocol: as §1
To evaluate any inflammatory effect of ISIS oligonucleotides in cynomolgus monkeys, the monkeys were fasted overnight. Approximately, 1.5 mL of blood samples were collected from all the study groups. Blood was collected in tubes without anticoagulant for serum separation. The tubes were kept at room temperature for a minimum of 90 min and then centrifuged at 3,000 rpm for 10 min. C-reactive protein (CRP), which is synthesized in the liver and which serves as a marker of inflammation, was measured using a Toshiba 120FR NEO chemistry analyzer (Toshiba Co., Japan). Complement C3 was also measured similarly, and the data is presented as a percentage of baseline values.

Consider six substances from patent US11840686B2, “Modulation of prekallikrein (PKK) expression” (Ionis Pharmaceuticals, Inc., priority 2013, dated 2023).

In the case of “ISIS 547445: gapmer targeting human PKK, selected from earlier screens; sequence in a table not shown (antisense GCCACTATAGATGCGCCAAA; gapmer, wing chemistry not given here)”, the “clinical observation, euthanasia” value in data set [1] was “two monkeys treated with ISIS 547445 were euthanized”.

For “ISIS 547457: antisense oligonucleotide targeting nucleobases 30570-30610 of SEQ ID NO: 10; sequence in a table not shown (AAGGCGATATCATGATTCCC; 5-10-5 MOE gapmer, further chemistry not given here)”, the “PKK protein level reduction (%) in plasma relative to control levels” value with PKK protein (Day 17) is listed as 68%. Further, the “PKK protein level reduction (%) in plasma relative to control levels” value in the data set with PKK protein (Day 31) is reported as 75%. Besides, the “PKK protein level reduction (%) in plasma relative to control levels” value in the data set on PKK protein (Day 45) is 79%. Further, the “PKK protein level reduction (%) in plasma relative to control levels” value in the data set with PKK protein (Day 59) was determined as 76%. Also, in the data set with PKK protein (Day 73), the “PKK protein level reduction (%) in plasma relative to control levels” value is given as 80%. In data set [2], the ALT is recorded as 52 IU/L, the AST amounted to 54 IU/L and the Albumin is on record as 4.0 g/dL. In data set [3], this substance displayed an HCT of 45%, a Hemoglobin of 13.8 g/dL, a Platelets of 367000 µL⁻¹ and an RBC of 6.4e+06 µL⁻¹. Moreover, in data set [3], the WBC came out at 10000 µL⁻¹. Also, in data set [4], the “Plasma BUN” value came to 24.3 mg/dL and the “Plasma Creatinine” value was 1.0 mg/dL. Also, the Urine protein/creatinine ratio in data set [5] amounted to 0.03. In data set [6], the “C3 (% of baseline)” value is reported as 53 % of baseline and the CRP amounted to 0.3 mg/dL.

For “ISIS 546232: antisense oligonucleotide targeting human PKK; sequence in a table not shown (antisense AGGAACTTGGTGTGCCACTT; 5-10-5 MOE gapmer, further chemistry not given here)”, the “PKK protein level reduction (%) in plasma relative to control levels” value with PKK protein (Day 17) was 53%. In the data set on PKK protein (Day 31), the “PKK protein level reduction (%) in plasma relative to control levels” value turned out to be 58%. Moreover, in the data set on PKK protein (Day 45), the “PKK protein level reduction (%) in plasma relative to control levels” value is listed as 72%. For the same substance, the “PKK protein level reduction (%) in plasma relative to control levels” value in the data set on PKK protein (Day 59) is 75%. In addition, in the data set on PKK protein (Day 73), the “PKK protein level reduction (%) in plasma relative to control levels” value is 70%. In data set [2], this substance registered an ALT of 140 IU/L, an AST of 63 IU/L and an Albumin of 4.1 g/dL. In data set [3], this substance registered an HCT of 42%, a Hemoglobin of 12.9 g/dL, a Platelets of 391000 µL⁻¹ and an RBC of 5.4e+06 µL⁻¹. For the same substance, the WBC in data set [3] came to 11000 µL⁻¹. Moreover, in data set [4], the “Plasma BUN” value was found to be 22.7 mg/dL and the “Plasma Creatinine” value amounted to 1.0 mg/dL. Moreover, the Urine protein/creatinine ratio in data set [5] came to 0.03. Moreover, in data set [6], the “C3 (% of baseline)” value is 50 % of baseline and the CRP is 0.5 mg/dL.

Take “ISIS 547927: antisense oligonucleotide targeting human PKK; sequence in a table not shown (ATGGTCCGACACACAA; deoxy, MOE and cEt modifications, further chemistry not given here)”: the “PKK protein level reduction (%) in plasma relative to control levels” value with PKK protein (Day 17) stood at 8%. In addition, the “PKK protein level reduction (%) in plasma relative to control levels” value in the data set on PKK protein (Day 31) was found to be 0%. Moreover, the “PKK protein level reduction (%) in plasma relative to control levels” value in the data set with PKK protein (Day 45) turned out to be 15%. Moreover, in the data set with PKK protein (Day 59), the “PKK protein level reduction (%) in plasma relative to control levels” value is listed as 10%. Moreover, in the data set with PKK protein (Day 73), the “PKK protein level reduction (%) in plasma relative to control levels” value was determined as 18%. In data set [2], this substance had an ALT of 61 IU/L, an AST of 59 IU/L and an Albumin of 4.2 g/dL. Further, in data set [3], the HCT worked out at 41%, the Hemoglobin came out at 12.5 g/dL, the Platelets is 461000 µL⁻¹ and the RBC stood at 5.2e+06 µL⁻¹. This substance yielded a WBC in data set [3] of 45000 µL⁻¹. In data set [4], the “Plasma BUN” value is recorded as 22.3 mg/dL and the “Plasma Creatinine” value came out at 1.0 mg/dL. The Urine protein/creatinine ratio in data set [5] was 0.04. Besides, in data set [6], the “C3 (% of baseline)” value is recorded as 73 % of baseline and the CRP came out at 0.2 mg/dL.

As to “ISIS 546828: gapmer targeting human PKK, selected from earlier screens; sequence in a table not shown (ACAGTATCACTGTACTAGTT; gapmer, wing chemistry not given here)”, in the data set with PKK protein (Day 17), the “PKK protein level reduction (%) in plasma relative to control levels” value was found to be 0%. Besides, the “PKK protein level reduction (%) in plasma relative to control levels” value with PKK protein (Day 31) is recorded as 8%. Besides, in the data set on PKK protein (Day 45), the “PKK protein level reduction (%) in plasma relative to control levels” value came out at 23%. Further, the “PKK protein level reduction (%) in plasma relative to control levels” value with PKK protein (Day 59) was 39%. Besides, in the data set on PKK protein (Day 73), the “PKK protein level reduction (%) in plasma relative to control levels” value turned out to be 39%. Besides, in data set [2], the ALT is 67 IU/L, the AST worked out at 75 IU/L and the Albumin came to 3.7 g/dL. Moreover, in data set [3], the HCT was 43%, the Hemoglobin was 12.9 g/dL, the Platelets was 408000 µL⁻¹ and the RBC came out at 6e+06 µL⁻¹. In data set [3], this substance displayed a WBC of 11000 µL⁻¹. In addition, in data set [4], the “Plasma BUN” value worked out at 24.7 mg/dL and the “Plasma Creatinine” value stood at 0.9 mg/dL. Besides, the Urine protein/creatinine ratio in data set [5] is 0.03. Also, in data set [6], the “C3 (% of baseline)” value is recorded as 56 % of baseline and the CRP was determined as 0.6 mg/dL.

Turning to “ISIS 547455: antisense oligonucleotide targeting nucleobases 30570-30610 of SEQ ID NO: 10; sequence in a table not shown (ATATCATGATTCCCTTCTGA; 5-10-5 MOE gapmer, further chemistry not given here)”, the “PKK protein level reduction (%) in plasma relative to control levels” value in the data set on PKK protein (Day 17) worked out at 26%. In addition, the “PKK protein level reduction (%) in plasma relative to control levels” value in the data set with PKK protein (Day 31) is recorded as 33%. Moreover, the “PKK protein level reduction (%) in plasma relative to control levels” value with PKK protein (Day 45) was determined as 43%. For the same substance, in the data set with PKK protein (Day 59), the “PKK protein level reduction (%) in plasma relative to control levels” value is reported as 58%. Besides, in the data set on PKK protein (Day 73), the “PKK protein level reduction (%) in plasma relative to control levels” value is reported as 58%. Also, in data set [2], the ALT is 61 IU/L, the AST worked out at 56 IU/L and the Albumin is given as 3.8 g/dL. Also, in data set [3], the HCT was 34%, the Hemoglobin was found to be 10.2 g/dL, the Platelets amounted to 448000 µL⁻¹ and the RBC amounted to 4.5e+06 µL⁻¹. In data set [3], this substance had a WBC of 13000 µL⁻¹. In addition, in data set [4], the “Plasma BUN” value is reported as 29.4 mg/dL and the “Plasma Creatinine” value is listed as 0.9 mg/dL. In data set [5], the Urine protein/creatinine ratio came out at 0.70. Moreover, in data set [6], the “C3 (% of baseline)” value is reported as 64 % of baseline and the CRP worked out at 1.9 mg/dL.
